Test results as given in the NIST ThermoML archive (doi:10.1016/j.jct.2016.10.009).
± gives the expanded uncertainty stated by the source.

Assay: xn = mol fraction of the nth substance listed
Conditions: Liquid, Vibrating tube method, x1 = 1

## CCC(C)O (stereo not given) [butan-2-ol] + CC(C)OC(C)C
333.15 K, 45000 kPa
  mass density: 806.6 ± 0.8 kg/m3
333.15 K, 50000 kPa
  mass density: 809.8 ± 0.8 kg/m3
333.15 K, 55000 kPa
  mass density: 812.8 ± 0.9 kg/m3
333.15 K, 60000 kPa
  mass density: 815.8 ± 0.9 kg/m3
333.15 K, 65000 kPa
  mass density: 818.7 ± 0.9 kg/m3
333.15 K, 70000 kPa
  mass density: 821.4 ± 0.9 kg/m3
333.15 K, 80000 kPa
  mass density: 826.8 ± 0.9 kg/m3
333.15 K, 90000 kPa
  mass density: 831.9 ± 1 kg/m3
333.15 K, 100000 kPa
  mass density: 836.7 ± 1 kg/m3
333.15 K, 110000 kPa
  mass density: 841.3 ± 1 kg/m3
333.15 K, 120000 kPa
  mass density: 845.6 ± 1 kg/m3
333.15 K, 130000 kPa
  mass density: 849.9 ± 1.1 kg/m3
333.15 K, 140000 kPa
  mass density: 853.9 ± 1.1 kg/m3
353.19 K, 100 kPa
  mass density: 750.3 ± 0.7 kg/m3
353.19 K, 1000 kPa
  mass density: 751.4 ± 0.7 kg/m3
353.19 K, 5000 kPa
  mass density: 756 ± 0.7 kg/m3
353.19 K, 10000 kPa
  mass density: 761.3 ± 0.7 kg/m3
353.19 K, 15000 kPa
  mass density: 766.4 ± 0.8 kg/m3
353.19 K, 20000 kPa
  mass density: 771 ± 0.8 kg/m3
353.19 K, 25000 kPa
  mass density: 775.4 ± 0.8 kg/m3
353.19 K, 30000 kPa
  mass density: 779.5 ± 0.8 kg/m3
353.19 K, 35000 kPa
  mass density: 783.5 ± 0.8 kg/m3
353.19 K, 40000 kPa
  mass density: 787.2 ± 0.8 kg/m3
353.19 K, 45000 kPa
  mass density: 790.8 ± 0.8 kg/m3
353.19 K, 50000 kPa
  mass density: 794.4 ± 0.9 kg/m3
353.19 K, 55000 kPa
  mass density: 797.7 ± 0.9 kg/m3
353.19 K, 60000 kPa
  mass density: 801 ± 0.9 kg/m3
353.19 K, 65000 kPa
  mass density: 804.1 ± 0.9 kg/m3
353.19 K, 70000 kPa
  mass density: 807.2 ± 0.9 kg/m3
353.19 K, 80000 kPa
  mass density: 812.9 ± 1 kg/m3
353.19 K, 90000 kPa
  mass density: 818.3 ± 1 kg/m3
353.19 K, 100000 kPa
  mass density: 823.5 ± 1 kg/m3
353.19 K, 110000 kPa
  mass density: 828.5 ± 1.1 kg/m3
353.19 K, 120000 kPa
  mass density: 833.1 ± 1.1 kg/m3
353.19 K, 130000 kPa
  mass density: 837.6 ± 1.1 kg/m3
353.19 K, 140000 kPa
  mass density: 842 ± 1.1 kg/m3
373.24 K, 1000 kPa
  mass density: 729.1 ± 0.7 kg/m3
373.24 K, 5000 kPa
  mass density: 734.5 ± 0.7 kg/m3
373.24 K, 10000 kPa
  mass density: 740.8 ± 0.7 kg/m3
373.24 K, 15000 kPa
  mass density: 746.6 ± 0.8 kg/m3
373.24 K, 20000 kPa
  mass density: 751.9 ± 0.8 kg/m3
373.24 K, 25000 kPa
  mass density: 757 ± 0.8 kg/m3
373.24 K, 30000 kPa
  mass density: 761.6 ± 0.8 kg/m3
373.24 K, 35000 kPa
  mass density: 766.1 ± 0.8 kg/m3
373.24 K, 40000 kPa
  mass density: 770.3 ± 0.8 kg/m3
373.24 K, 45000 kPa
  mass density: 774.4 ± 0.9 kg/m3
373.24 K, 50000 kPa
  mass density: 778.1 ± 0.9 kg/m3
373.24 K, 55000 kPa
  mass density: 781.8 ± 0.9 kg/m3
373.24 K, 60000 kPa
  mass density: 785.3 ± 0.9 kg/m3
373.24 K, 65000 kPa
  mass density: 788.8 ± 0.9 kg/m3
373.24 K, 70000 kPa
  mass density: 792.1 ± 1 kg/m3
373.24 K, 80000 kPa
  mass density: 798.4 ± 1 kg/m3
373.24 K, 90000 kPa
  mass density: 804.3 ± 1 kg/m3
373.24 K, 100000 kPa
  mass density: 809.8 ± 1.1 kg/m3
373.24 K, 110000 kPa
  mass density: 815.1 ± 1.1 kg/m3
373.24 K, 120000 kPa
  mass density: 820.1 ± 1.1 kg/m3
373.24 K, 130000 kPa
  mass density: 824.9 ± 1.2 kg/m3
373.24 K, 140000 kPa
  mass density: 829.5 ± 1.2 kg/m3
393.28 K, 1000 kPa
  mass density: 704.8 ± 0.7 kg/m3
393.28 K, 5000 kPa
  mass density: 711.3 ± 0.7 kg/m3
393.28 K, 10000 kPa
  mass density: 718.8 ± 0.7 kg/m3
393.28 K, 15000 kPa
  mass density: 725.6 ± 0.8 kg/m3
393.28 K, 20000 kPa
  mass density: 731.7 ± 0.8 kg/m3
393.28 K, 25000 kPa
  mass density: 737.4 ± 0.8 kg/m3
393.28 K, 30000 kPa
  mass density: 742.7 ± 0.8 kg/m3
393.28 K, 35000 kPa
  mass density: 747.8 ± 0.8 kg/m3
393.28 K, 40000 kPa
  mass density: 752.5 ± 0.9 kg/m3
393.28 K, 45000 kPa
  mass density: 757 ± 0.9 kg/m3
393.28 K, 50000 kPa
  mass density: 761.2 ± 0.9 kg/m3
393.28 K, 55000 kPa
  mass density: 765.4 ± 0.9 kg/m3
393.28 K, 60000 kPa
  mass density: 769.2 ± 0.9 kg/m3
393.28 K, 65000 kPa
  mass density: 772.9 ± 1 kg/m3
393.28 K, 70000 kPa
  mass density: 776.6 ± 1 kg/m3
393.28 K, 80000 kPa
  mass density: 783.4 ± 1 kg/m3
393.28 K, 90000 kPa
  mass density: 789.8 ± 1.1 kg/m3
393.28 K, 100000 kPa
  mass density: 795.8 ± 1.1 kg/m3
393.28 K, 110000 kPa
  mass density: 801.5 ± 1.1 kg/m3
393.28 K, 120000 kPa
  mass density: 806.8 ± 1.2 kg/m3
393.28 K, 130000 kPa
  mass density: 811.9 ± 1.2 kg/m3
393.28 K, 140000 kPa
  mass density: 816.8 ± 1.2 kg/m3
